Assay type in all cases: cell-based, human
Series [1] deals with Mia-PACA, H23 and H358 cells. Kind of series: Cell proliferation over 5 days (CellTiter Glow). The following applies: for inhibition of proliferation or survival (FIG. 3B): H23, H358 vs KRAS WT HT29 or HS-68 and PANC1 cells. On the procedure:
(§1) Transfection protocol. The following protocols are reported for 24/48/96 well plate format transfection. Cells should be trypsinized and seeded a day prior transfection Cells were cultured in Dulbecco's Modified Eagle's Medium (DMEM), supplemented with 2 mM glutamine, 1% antibiotics (streptomycin 10,000 μg/mL, penicillin, 10,000 IU/mL) and 10% (w/v) foetal calf serum (FCS), at 37° C. in a humidified atmosphere containing 5% CO2. 96 well plates seeded with 50,000 cells, the day prior transfection, grown to 60-80% confluence and set up to be at around 70% confluence at the day of transfection. Before transfection, cells are washed twice with DMEM (without FBS and pen/strep) (100 μl/well). Cells were then overlaid with 25 μl of complex solution, mixed gently and incubated for 10 min at 37° C.+5% CO2. 50 μl of fresh DMEM (without FBS and Antibiotics) was added and cells were incubated for 2 h at 37° C.+5% CO2 (time of exposure can be adjusted based on sensitivity of the cells). 250 μL of DMEM (containing 10% FCS and 1% antibiotics) were then added without removing the overlay of ADGN peptide/mRNA complexes. Cells were returned to the incubator (37° C., 5% CO2) and analyzed 48 hours to 72 hours post transfection.
(§2) Eight different gRNAs targeting KRAS 34G>T mutant G12C (gRNA34T1, gRNA34T2, gRNA34T3, gRNA34T4, gRNA34T5, gRNA34T6, gRNA34T7 and gRNA34T8) were evaluated on MIA-PACA, H23, H358, H29 and PANC1 cells. Cas9 mRNA (0.1 μg) and gRNA (0.2 μg) were associated with ADGN peptide at molar ratio 20/1 (peptide/nucleic acid). MIA-PACA, H23, H358, PANC1 and HT29 cells were cultured in 48 well plate format and treated with free mRNACas9-gRNA, or ADGN/mRNACas9:gRNA complex. Indel frequencies at the endogenous target sequences was evaluated 72 hours after transfection by either T7E1 method or deep sequencing. Cell proliferation was analyzed over a period of 5 days using CellTiter Glow kits on GlowMax (Promega).
Background: Cellular ATP, detected with luciferase, serves as a proxy for viable cell number.

A further series deals with KRAS 34G>T mutant G12C. Kind of series: Indel frequencies at the endogenous target sequences (T7E1 / deep sequencing) after ADGN/Cas9 mRNA/gRNA transfection. The following applies: for indel frequencies: deep sequencing, 72 hours after transfection, Cas9 mRNA 0.1 μg, gRNA 0.2 μg; for indel editing and disruption of G12C mutant KRAS (FIG. 3A): H23, H358 vs HT29 and PANC1 cells. On the procedure: Complex formation with mRNA:gRNA: ADGN peptide/mRNA/gRNA particles were prepared at a 20:1:1 molar ratio. ADGN/Cas9mRNA/sgRNA complexes were prepared at a 20/1/1 molar ratio with 0.5 μg mRNA: 1.5 μg sgRNA and 5% Glucose or DMEM (example for 96 well plates). […] Premixed Cas9 mRNA/gRNA were prepared in sterile water at room temperature in a glass vial (1-4 ml). ADGN-peptide solution was added dropwise (1 drop/sec) under magnetic agitation at 400 rpm to obtain a 1:2 ratio, and incubated for 30 min at room temperature or 37° C. Just before transfection, 150 μl Glucose or DMEM was added and the solution was mixed under magnetic agitation at 400 rpm for 1 minute. Then the solution was incubated for 5 min at 37° C. Then the complexes was ready for cell transfection or IV administration. Prior to IV administration, complexes were diluted in sucrose 5% solution.
as §1, §2
(§3) In order to confirm the specificity of sgRNAs targeting G12V, G12C or G12D KRAS mutation, gRNA35T3 targeting G12V, gRNA34T6 targeting G12C, and gRNA35A5 targeting G12D were evaluated on a large panel of cancer cells harboring different KRAS mutations including SW403, SW480, PANC1, PK-45H, PK-1, MIA-PACA, H23, H358, HT-29, HS-68 and LS513. Cas9 mRNA (0.2 μg) and gRNA (0.4 μg) were associated with ADGN peptide at molar ratio 20/1 (peptide/nucleic acid). Cells were cultured in 48 well plate format and treated with free mRNACas9-gRNA, or ADGN/mRNACas9:gRNA complex. Indel frequencies at the endogenous target sequences was evaluated 72 hours after transfection by either T7E1 method and cell proliferation was analyzed over a period of 5 days using CellTiter Glow kits on GlowMax (Promega).

Series [2] concerns G12V, G12D, G12C KRAS mutant cells and WT KRAS cells. Put plainly: Specificity of lead sgRNAs on a large panel of cancer cells harboring different KRAS mutations (indel, proliferation). The following applies: Cas9 mRNA 0.2 μg, gRNA 0.4 μg. As to the method: as §3

Results on three sequences are retold here after patent publication US20230167437A1, “COMPOSITIONS FOR TREATING CANCER WITH KRAS MUTATIONS AND USES THEREOF” (Aadigen, LLC, priority 2020, published 2023).

Where only a bound is given, the exact number is not on record here.

As for “CTTGTGGTAGTTGGAGCTTG (guide CTTGTGGTAGTTGGAGCTTG; chemistry not given here) [gRNA34T1, sgRNA target KRAS G12C mutation (34G>T); PAM TGG]”, the “inhibition of proliferation or survival (FIG. 3B)” value (shortened to “inhibition”) in series [1] (Mia-PACA) is “specifically inhibit proliferation or survival of Mia-PACA, H23 and H358 cells”. The indel frequencies was 41% in the series with KRAS 34G>T mutant G12C (H23 cells), 29% in the series with KRAS 34G>T mutant G12C (H358 cells) and 34% with KRAS 34G>T mutant G12C (Mia-PACA cells). Further, the “indel editing and disruption of G12C mutant KRAS (FIG. 3A)” value (from here on “indel editing and disruption”) in the series with KRAS 34G>T mutant G12C (Mia-PACA) was “induced indel editing and efficient disruption of G12C mutant KRAS”.
“GTAGTTGGAGCTTGTGGCGT (guide GTAGTTGGAGCTTGTGGCGT; sgRNA, chemical modifications not given here, further chemistry not given here) [gRNA34T6, sgRNA target KRAS G12C mutation (34G>T); PAM AGG]”: the “fold more efficient than gRNA34T3 (cell proliferation)” value in series [1] came out at 3 fold. The “fold more efficient than gRNA34T5 (cell proliferation)” value in series [1] amounted to 2 fold. Besides, the “inhibition” value in series [1] (Mia-PACA) is “specifically inhibit proliferation or survival of Mia-PACA, H23 and H358 cells”. The cell proliferation blocked in series [1] (Mia-PACA, H23 and H358 cells, 5 days) worked out at 75%. The indel frequencies in the series with KRAS 34G>T mutant G12C (H23 cells) is 78%; in the series on KRAS 34G>T mutant G12C (H358 cells), 67%; with KRAS 34G>T mutant G12C (Mia-PACA cells) it was 71%. Further, the indel frequency with KRAS 34G>T mutant G12C (KRAS G12C mutated cancer cells) is recorded as > 70%; with KRAS 34G>T mutant G12C (Mia-PACA, H23 and H358 cells, T7E1, 72 hours, Cas9 mRNA 0.2 μg, gRNA 0.4 μg), > 70%. Moreover, in the series on KRAS 34G>T mutant G12C (Mia-PACA), the “indel editing and disruption” value was “induced indel editing and efficient disruption of G12C mutant KRAS”. The “effect on non-targeted KRAS mutant cells and WT KRAS cells (FIGS. 4A-4B)” value in series [2] was “does not alter G12D and G12V KRAS mutant cells or WT KRAS cells”.
Take “TTG TGG TAG TTG GAG CTT G (guide TTGTGGTAGTTGGAGCTTG; sgRNA, chemical modifications not given here, further chemistry not given here) [gRNA34T5, sgRNA target KRAS G12C mutation (34G>T); PAM TGG]”: the “inhibition” value in series [1] (Mia-PACA) was “specifically inhibit proliferation or survival of Mia-PACA, H23 and H358 cells”. Also, the results for the indel frequencies with KRAS 34G>T mutant G12C (H23 cells), with KRAS 34G>T mutant G12C (H358 cells) and in the series with KRAS 34G>T mutant G12C (Mia-PACA cells) were 68%, 67% and 75%, respectively. Further, the “indel editing and disruption” value with KRAS 34G>T mutant G12C (Mia-PACA) was “induced indel editing and efficient disruption of G12C mutant KRAS”.
